Source: ChEMBL document CHEMBL4229451, “Recent advances in peptidomimetics antagonists targeting estrogen receptor α-coactivator interaction in cancer therapy” (Bioorg Med Chem Lett, 2018)
Starred links: 1 amine or outer side, 2 acyl side, 3 side chain; linkers in the order of their positions; H or OH if unused. Positions of bridges follow the written chain, without caps; N, C: chain ends. Non-standard residues stand in square brackets, D forms with d. Residues, ends and D or L forms follow the SMILES beside them. αMeNle(4R-Me,6-ylidene) = C[C@H](CC=[*:3])C[C@](C)(N[*:1])C(=O)[*:2]; X3 = C[C@@H](CC=[*:3])C[C@](C)(N[*:1])C(=O)[*:2]; X2 = O=C([C@@H](CC[*:3])N[*:1])[*:2]; S5 = C=CCCC[C@](C)(N)C(=O)O

Tests used:
[1] = molecular target: T1, Estrogen receptor (Homo sapiens, UniProt P03372); test: Antagonist activity at full length recombinant human ERalpha expressed in baculovirus expression system assessed as inhibition of estradiol-induced Euphorium-labelled LTERHKILHRLLQEGSPSD peptide recruitment after 1.5 hrs by time-resolved fluorescence assay
T1 sequence (P03372 whole entry): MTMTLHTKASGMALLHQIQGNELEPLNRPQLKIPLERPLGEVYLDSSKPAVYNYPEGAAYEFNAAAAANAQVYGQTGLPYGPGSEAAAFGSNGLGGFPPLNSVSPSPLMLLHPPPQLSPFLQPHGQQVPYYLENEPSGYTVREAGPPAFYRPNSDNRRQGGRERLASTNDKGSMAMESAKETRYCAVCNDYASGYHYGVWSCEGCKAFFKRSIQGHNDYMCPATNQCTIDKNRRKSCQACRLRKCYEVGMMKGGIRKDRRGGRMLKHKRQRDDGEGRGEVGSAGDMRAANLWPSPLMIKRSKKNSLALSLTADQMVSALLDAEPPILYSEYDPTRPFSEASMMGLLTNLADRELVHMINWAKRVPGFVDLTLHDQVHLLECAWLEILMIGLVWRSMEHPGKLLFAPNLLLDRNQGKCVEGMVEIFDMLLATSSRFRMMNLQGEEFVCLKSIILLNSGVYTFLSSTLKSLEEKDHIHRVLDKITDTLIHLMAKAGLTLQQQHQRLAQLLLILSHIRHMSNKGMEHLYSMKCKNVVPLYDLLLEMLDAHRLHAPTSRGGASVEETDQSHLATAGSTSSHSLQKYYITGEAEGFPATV

[2] = molecular target: Estrogen receptor beta (Homo sapiens, UniProt Q92731); test: Antagonist activity at full length recombinant human ERbeta expressed in baculovirus expression system assessed as inhibition of estradiol-induced Euphorium-labelled QAQQKSLLQQLLTE peptide recruitment after 1.5 hrs by time-resolved fluorescence assay
Sequence of Estrogen receptor beta (Homo sapiens, UniProt Q92731) (Q92731 whole entry, the tested form may be a part): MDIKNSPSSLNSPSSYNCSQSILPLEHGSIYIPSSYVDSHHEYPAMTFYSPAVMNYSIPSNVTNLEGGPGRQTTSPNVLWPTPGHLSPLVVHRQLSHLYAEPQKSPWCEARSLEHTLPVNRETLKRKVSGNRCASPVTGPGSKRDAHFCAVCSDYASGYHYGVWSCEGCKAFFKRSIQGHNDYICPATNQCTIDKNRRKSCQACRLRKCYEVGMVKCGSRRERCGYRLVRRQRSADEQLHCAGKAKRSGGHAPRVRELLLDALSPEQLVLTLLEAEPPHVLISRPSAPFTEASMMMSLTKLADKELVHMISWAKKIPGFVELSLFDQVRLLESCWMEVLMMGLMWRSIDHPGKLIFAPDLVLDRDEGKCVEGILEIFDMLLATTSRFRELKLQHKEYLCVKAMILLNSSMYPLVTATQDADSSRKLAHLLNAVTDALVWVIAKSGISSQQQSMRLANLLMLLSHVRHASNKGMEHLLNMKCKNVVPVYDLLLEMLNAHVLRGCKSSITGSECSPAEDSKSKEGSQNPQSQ

[3] = molecular target: T1, Estrogen receptor; test: Binding affinity to recombinant human ERalpha LBD (301 to 553 residues) expressed in Escherichia coli BL21(DE3) using FITC-labelled compound after 1 hr by fluorescence polarization method
[4] = molecular target: Estrogen receptor beta (Homo sapiens, UniProt Q92731, C334S/C369S/C481S); test: (§1) Binding affinity to recombinant human ERbeta LBD (259 to 498 residues) C334S/C369S/C481S triple mutant expressed in Escherichia coli BL21(DE3) by surface plasmon resonance method
Sequence of Estrogen receptor beta (Homo sapiens, UniProt Q92731, C334S/C369S/C481S) (Q92731 whole entry C334S/C369S/C481S, the tested form may be a part): as the sequence (Q92731 whole entry, the tested form may be a part) above, with C334S, C369S, C481S counted along it

[5] = system: Estrogen receptor beta (Homo sapiens), Q92731 [C334S,C369S,C481S]; test: as §1
Sequence of Estrogen receptor beta (Homo sapiens), Q92731 [C334S,C369S,C481S] (Q92731 whole entry C334S/C369S/C481S, the tested form may be a part): as the sequence (Q92731 whole entry, the tested form may be a part) above, with C334S, C369S, C481S counted along it

[6] = molecular target: T1, Estrogen receptor; test: (§2) Binding affinity to recombinant human ERalpha LBD (301 to 553 residues) expressed in Escherichia coli BL21(DE3) by surface plasmon resonance method
[7] = molecular target: T2, Estrogen receptor (Homo sapiens) (UniProt P03372); test: as §2
T2 sequence (whole entry): T1 sequence (P03372 whole entry)

[8] = molecular target: T1, Estrogen receptor; test: Displacement of 5-iodoacetamidofluorescein-labelled SRC3 from C417-biotin labelled ERalpha (unknown origin) (304 to 554 residues) after 45 mins by TR-FRET assay

Row | SMILES | Kd [4] [nM] | Kd [6] [nM] | IC50 [8] [nM] | other results
1 | CC[C@H](C)[C@@H]1NC(=O)[C@H](NC(=O)[C@@H](N)CCCNC(=N)N)CSSC[C@H](C(=O)N[C@@H](CCCNC(=N)N)C(=O)N[C@@H](CC(C)(C)C)C(=O)N[C@@H](CC(C)C)C(=O)N[C@@H](CCC(N)=O)C(N)=O)NC(=O)[C@H](CC(C)C)NC1=O |  |  |  | Ki [1]: 0.07 nM; Ki [2]: 1.2 nM
2 | CC[C@H](C)[C@@H]1NC(=O)C[C@H](NC(=O)[C@@H](N)CCCNC(=N)N)C(=O)NC[C@@H](C(=O)N[C@@H](CCCNC(=N)N)C(=O)N[C@@H](CC(C)C)C(=O)N[C@@H](CC(C)C)C(=O)N[C@@H](CCC(N)=O)C(N)=O)NC(=O)[C@H](CC(C)C)NC1=O |  |  |  | Kd [3]: 85 nM
3 | CC[C@H](C)[C@@H]1NC(=O)[C@H](NC(=O)[C@@H](N)CCCNC(=N)N)CSSC[C@H](C(=O)N[C@@H](CCCNC(=N)N)C(=O)N[C@@H](CC(C)C)C(=O)N[C@@H](CC(C)C)C(=O)N[C@@H](CCC(N)=O)C(N)=O)NC(=O)[C@H](CC(C)C)NC1=O |  |  |  | Ki [1]: 11 nM
4 | CC[C@H](C)[C@H](NC(=O)[C@H](Cc1ccc(O)cc1)NC(=O)[C@@H]1C[C@H](O)CN1C(=O)[C@H](C)NC(=O)[C@H](CC(C)C)NC(=O)CCCCCNC(=O)[C@H](CCC(N)=O)NC(=O)[C@H](CC(C)C)NC(=O)[C@H](CC(C)C)NC(=O)[C@H](CCCNC(=N)N)NC(=O)[C@@H]1CNC(=O)[C@@H](NC(=O)[C@@H](N)CCCNC(=N)N)CC(=O)N[C@@H]([C@@H](C)CC)C(=O)N[C@@H](CC(C)C)C(=O)N1)C(N)=O |  |  |  | Kd [3]: 30 nM
5 | CC[C@H](C)[C@H](NC(=O)[C@H](CCCCN)NC(=O)[C@H](Cc1cnc[nH]1)NC(=O)[C@H](CCCCN)NC(=O)[C@H](CCC(=O)O)NC(C)=O)C(=O)N[C@@H](CC(C)C)C(=O)N[C@@]1(C)CCC/C=C\CCC[C@@](C)(C(=O)N[C@@H](CC(=O)O)C(=O)N[C@@H](CO)C(N)=O)NC(=O)[C@H](CC(C)C)NC(=O)[C@H](CC(C)C)NC(=O)[C@H](CCCNC(=N)N)NC1=O (Ac-EKHKIL[S5]RLL[S5]DS-NH2; staple (Z) 7-11) | 155 | 75 |  | Kdiss [5]: 0.155 s⁻¹; Kdiss [7]: 0.129 s⁻¹
6 | CC(=O)N[C@@H](Cc1cnc[nH]1)C(=O)N[C@@H](CCCCN)C(=O)N[C@@]1(C)CCC/C=C\CCC[C@@](C)(C(=O)N[C@@H](CC(C)C)C(=O)N[C@@H](CCC(N)=O)C(=O)N[C@@H](CC(=O)O)C(=O)N[C@@H](CO)C(N)=O)NC(=O)[C@H](CCC(N)=O)NC(=O)[C@H](Cc2cnc[nH]2)NC(=O)[C@H](CC(C)C)NC1=O (Ac-HK[S5]LHQ[S5]LQDS-NH2; staple (Z) 3-7) | 632 | 352 | 760 | Kdiss [5]: 0.339 s⁻¹; Kdiss [7]: 0.193 s⁻¹
7 | CC[C@H](C)[C@@H]1NC(=O)[C@@](C)(NC(=O)[C@H](Cc2cnc[nH]2)NC(C)=O)CCC/C=C\CCC[C@@](C)(C(=O)N[C@@H](CC(C)C)C(=O)N[C@@H](CC(C)C)C(=O)N[C@@H](CCC(N)=O)C(=O)N[C@@H](CC(=O)O)C(=O)N[C@@H](CO)C(N)=O)NC(=O)[C@H](Cc2cnc[nH]2)NC(=O)[C@H](CC(C)C)NC1=O (Ac-H[S5]ILH[S5]LLQDS-NH2; staple (Z) 2-6) | 1990 | 674 |  | Kdiss [5]: 0.509 s⁻¹; Kdiss [7]: 0.256 s⁻¹
8 | CC[C@H](C)[C@@H]1NC(=O)[C@H](NC(=O)[C@@H](N)CCCCN)CSSC[C@H](C(=O)N[C@@H](CCCNC(=N)N)C(=O)N[C@@H](CC(C)C)C(=O)N[C@@H](CC(C)C)C(=O)N[C@@H](CCC(N)=O)C(N)=O)NC(=O)[C@H](CC(C)C)NC1=O (H-K[dC]IL[dC]RLLQ-NH2; disulfide 2-5) |  |  |  | Ki [1]: 25 nM
9 | CC[C@H](C)[C@@H]1NC(=O)[C@H](NC(=O)[C@@H](N)CCCNC(=N)N)CCSC[C@@H](C(=O)N[C@@H](CCCNC(=N)N)C(=O)N[C@@H](CC(C)C)C(=O)N[C@@H](CC(C)C)C(=O)N[C@@H](CCC(N)=O)C(N)=O)NC(=O)[C@H](CC(C)C)NC1=O (H-R[X2]ILCRLLQ-NH2; thioether 2-5) |  |  |  | Ki [1]: 6.9 nM; Ki [2]: 64 nM

Further lines, with some results ahead:

Row | Kd [4] [nM] | Kd [6] [nM] | IC50 [8] [nM] | SMILES | other results
10 | 2800 | 4000 |  | CC[C@H](C)[C@H](NC(=O)[C@H](CCCCN)NC(=O)[C@H](Cc1cnc[nH]1)NC(C)=O)C(=O)N[C@@H](CC(C)C)C(=O)N[C@@H](Cc1cnc[nH]1)C(=O)N[C@@H](CCC(N)=O)C(=O)N[C@@H](CC(C)C)C(=O)N[C@@H](CC(C)C)C(=O)N[C@@H](CCC(N)=O)C(=O)N[C@@]1(C)CCC/C=C\CCC[C@@](C)(C(=O)N[C@H](C(N)=O)C(C)C)NC(=O)[C@H](CO)NC(=O)[C@H](CO)NC(=O)[C@H](CO)NC1=O (Ac-HKILHQLLQ[S5]SSS[S5]V-NH2; staple (Z) 10-14) | 
11 | > 15000 | > 15000 |  | CC[C@H](C)[C@H](NC(=O)[C@H](CCCCN)NC(=O)[C@H](Cc1cnc[nH]1)NC(C)=O)C(=O)N[C@@H](CC(C)C)C(=O)N[C@@H](Cc1cnc[nH]1)C(=O)N[C@@]1(C)CCC/C=C\CCC[C@@](C)(C(=O)N[C@@H](CO)C(N)=O)NC(=O)[C@H](CCC(N)=O)NC(=O)[C@H](CC(C)C)NC(=O)[C@H](CC(C)C)NC1=O (Ac-HKILH[S5]LLQ[S5]S-NH2; staple (Z) 6-10) | 
12 |  |  | 1200 | C=CCCC[C@](C)(NC(=O)[C@H](CCCCN)NC(=O)[C@H](Cc1cnc[nH]1)NC(C)=O)C(=O)N[C@@H](CC(C)C)C(=O)N[C@@H](Cc1cnc[nH]1)C(=O)N[C@@H](CCC(N)=O)C(=O)N[C@@](C)(CCCC=C)C(=O)N[C@@H](CC(C)C)C(=O)N[C@@H](CCC(N)=O)C(=O)N[C@@H](CC(=O)O)C(=O)N[C@@H](CO)C(N)=O (Ac-HK[S5]LHQ[S5]LQDS-NH2) | 
13 |  |  | 1800 | CC(=O)N[C@@H](Cc1cnc[nH]1)C(=O)N[C@@H](CCCCN)C(=O)N[C@@]1(C)CCC/C=C\C[C@@H](C)C[C@@](C)(C(=O)N[C@@H](CC(C)C)C(=O)N[C@@H](CCC(N)=O)C(=O)N[C@@H](CC(=O)O)C(=O)N[C@@H](CO)C(N)=O)NC(=O)[C@H](CCCNC(=N)N)NC(=O)[C@H](Cc2cnc[nH]2)NC(=O)[C@H](CC(C)C)NC1=O (Ac-HK[S5]LHR[αMeNle(4R-Me,6-ylidene)]LQDS-NH2; staple (Z) 3-7) | 
14 |  |  | 89 | CC(=O)N[C@@H](Cc1cnc[nH]1)C(=O)N[C@@H](CCCCN)C(=O)N[C@@]1(C)C[C@@H](C)C/C=C\CCC[C@@](C)(C(=O)N[C@@H](CC(C)C)C(=O)N[C@@H](CCC(N)=O)C(=O)N[C@@H](CC(=O)O)C(=O)N[C@@H](CO)C(N)=O)NC(=O)[C@H](CCCNC(=N)N)NC(=O)[C@H](Cc2cnc[nH]2)NC(=O)[C@H](CC(C)C)NC1=O (Ac-HK[X3]LHR[S5]LQDS-NH2; staple (Z) 3-7) | 
15 |  |  | 96 | CC(=O)N[C@@H](Cc1cnc[nH]1)C(=O)N[C@@H](CCCCN)C(=O)N[C@@]1(C)C[C@H](C)C/C=C\CCC[C@@](C)(C(=O)N[C@@H](CC(C)C)C(=O)N[C@@H](CCC(N)=O)C(=O)N[C@@H](CC(=O)O)C(=O)N[C@@H](CO)C(N)=O)NC(=O)[C@H](CCCNC(=N)N)NC(=O)[C@H](Cc2cnc[nH]2)NC(=O)[C@H](CC(C)C)NC1=O (Ac-HK[αMeNle(4R-Me,6-ylidene)]LHR[S5]LQDS-NH2; staple (Z) 3-7) | 
16 | 8300 | 8000 |  | CC[C@H](C)[C@H](NC(=O)[C@H](CCCCN)NC(=O)[C@]1(C)CCC/C=C\CCC[C@](C)(NC(C)=O)C(=O)N[C@@H](CCCCN)C(=O)N[C@@H](CCC(=O)O)C(=O)N[C@@H](CCCCN)C(=O)N1)C(=O)N[C@@H](CC(C)C)C(=O)N[C@@H](Cc1cnc[nH]1)C(=O)N[C@@H](CCC(N)=O)C(=O)N[C@@H](CC(C)C)C(=O)N[C@@H](CC(C)C)C(=O)N[C@@H](CCC(N)=O)C(=O)N[C@@H](CC(=O)O)C(=O)N[C@@H](CO)C(N)=O (Ac-[S5]KEK[S5]KILHQLLQDS-NH2; staple (Z) 1-5) | 
